Source: ChEMBL document CHEMBL1909631, “Synthesis and anti-inflammatory activity of some new 4,5-dihydro-1,5-diaryl-1H-pyrazole-3-substituted-heteroazole derivatives” (Bioorg Med Chem Lett, 2011)

Legend:
Rattus norvegicus [1] = test: Antiinflammatory activity in Wistar rat assessed as protection against carrageenan-induced paw edema at 100 mg/kg, po administered 1 hr before carrageenan challenge measured after 4 hrs relative to control; type: functional
Rattus norvegicus [2] = test: Analgesic activity in Wistar rat assessed as inhibition of acetic acid-induced writhing at 100 mg/kg, po administered 1 hr before acetic acid challenge measured after 30 mins relative to control; type: functional
[3] = target: T1, Prostaglandin G/H synthase 2 (Homo sapiens) (UniProt P35354); test: Inhibition of COX2 in human whole blood at 10 uM
T1 sequence (whole entry): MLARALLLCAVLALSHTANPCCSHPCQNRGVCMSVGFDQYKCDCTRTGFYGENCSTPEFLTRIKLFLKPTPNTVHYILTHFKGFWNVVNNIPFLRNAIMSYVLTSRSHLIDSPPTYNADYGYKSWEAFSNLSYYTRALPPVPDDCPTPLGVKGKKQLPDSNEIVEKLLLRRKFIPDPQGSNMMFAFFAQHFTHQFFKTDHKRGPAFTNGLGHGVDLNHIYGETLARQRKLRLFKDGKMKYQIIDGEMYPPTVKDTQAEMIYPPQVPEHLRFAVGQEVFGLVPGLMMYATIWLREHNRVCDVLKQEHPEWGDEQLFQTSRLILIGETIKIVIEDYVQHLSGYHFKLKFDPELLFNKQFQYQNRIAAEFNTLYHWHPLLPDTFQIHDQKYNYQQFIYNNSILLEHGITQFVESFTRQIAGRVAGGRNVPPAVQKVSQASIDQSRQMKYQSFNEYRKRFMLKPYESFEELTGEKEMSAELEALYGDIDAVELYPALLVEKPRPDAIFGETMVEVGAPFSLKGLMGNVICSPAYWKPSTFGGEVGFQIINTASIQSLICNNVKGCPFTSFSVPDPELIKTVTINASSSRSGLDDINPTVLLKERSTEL

Rattus norvegicus [4] = test: Ulcerogenicity in fasted Wistar rat assessed as ulceration at 300 mg/kg, po administered every 2 hrs; type: toxicity, organism-based; parameters: dose 300 mg/kg, route oral; settings: in vivo

| inhibition [3] | Structure (SMILES) | Activity (Rattus norvegicus [1]) | inhibition in vivo at 100 mg/kg (Rattus norvegicus [2]) | Activity (Rattus norvegicus [4]) |
| --- | --- | --- | --- | --- |
| – | Nc1nnc(C2=NN(c3ccc(S(N)(=O)=O)cc3)C(c3ccc(Cl)cc3)C2)o1 (racemic) | 18.38% | – | – |
| – | O=C(O)c1nc(C2=NN(c3ccccc3)C(c3ccc(Cl)cc3)C2)no1 (racemic) | 14.4% | – | – |
| – | CCOC(=O)c1nnc(C2=NN(c3ccccc3)C(c3ccc(Cl)cc3)C2)o1 (racemic) | 4.5% | – | – |
| – | Oc1nnc(C2=NN(c3ccccc3)C(c3ccc(Cl)cc3)C2)o1 (racemic) | 24.26% | – | – |
| – | Cn1nnc(C2=NN(c3ccccc3)C(c3ccc(Cl)cc3)C2)n1 (racemic) | 34.31% | – | – |
| 4% | Cc1nc(C2=NN(c3ccccc3)C(c3ccc(Cl)cc3)C2)no1 (racemic) | 49.24% | 23.7% | Non-toxic |
| – | Nc1nnc(C2=NN(c3ccccc3)C(c3ccc(Cl)cc3)C2)o1 (racemic) | 4.5% | – | – |
| – | O=C(O)Cc1nc(C2=NN(c3ccccc3)C(c3ccc(Cl)cc3)C2)no1 (racemic) | 7.08% | – | – |
| – | FC(F)(F)c1nnc(C2=NN(c3ccccc3)C(c3ccc(Cl)cc3)C2)o1 (racemic) | -46.9% | – | – |
| – | CCOC(=O)Cc1nc(C2=NN(c3ccccc3)C(c3ccc(Cl)cc3)C2)no1 (racemic) | 30.94% | – | – |
| – | NS(=O)(=O)c1ccc(N2N=C(c3noc(S)n3)CC2c2ccc(Cl)cc2)cc1 (racemic) | 48.82% | – | – |
| – | Cc1nnc(C2=NN(c3ccccc3)C(c3ccc(Cl)cc3)C2)o1 (racemic) | 16.45% | – | – |
| – | O=C(O)c1nnc(C2=NN(c3ccccc3)C(c3ccc(Cl)cc3)C2)o1 (racemic) | -19.3% | – | – |
| – | CSc1nnc(C2=NN(c3ccc(S(N)(=O)=O)cc3)C(c3ccc(Cl)cc3)C2)s1 (racemic) | 26.12% | – | – |
| – | N#CC1=NN(c2ccc(S(N)(=O)=O)cc2)C(c2ccc(Cl)cc2)C1 (racemic) | 49.67% | – | – |
| 11% | Cn1nnc(C2=NN(c3ccc(S(N)(=O)=O)cc3)C(c3ccc(Cl)cc3)C2)n1 (racemic) | 48.58% | 23.7% | Non-toxic |

| inhibition [3] | Structure (SMILES) | Activity (Rattus norvegicus [1]) | inhibition in vivo at 100 mg/kg (Rattus norvegicus [2]) | Activity (Rattus norvegicus [4]) |
| --- | --- | --- | --- | --- |
| – | Sc1nnc(C2=NN(c3ccccc3)C(c3ccc(Cl)cc3)C2)o1 (racemic) | 32.74% | – | – |
| – | Sc1nc(C2=NN(c3ccccc3)C(c3ccc(Cl)cc3)C2)no1 (stereo not given) | 40.51% | – | – |
| – | Clc1ccc(C2CC(c3nn[nH]n3)=NN2c2ccccc2)cc1 (stereo not given) | 37.8% | – | – |
| 7% | NS(=O)(=O)c1ccc(N2N=C(c3nn[nH]n3)CC2c2ccc(Cl)cc2)cc1 (racemic) | 54.58% | 30.1% | Non-toxic |
| – | CCOC(=O)c1nc(C2=NN(c3ccccc3)C(c3ccc(Cl)cc3)C2)no1 (racemic) | 20.35% | – | – |
| – | NS(=O)(=O)c1ccc(N2N=C(c3noc(O)n3)CC2c2ccc(Cl)cc2)cc1 (racemic) | 46.18% | – | – |
| – | O=C([O-])Cc1ccccc1Nc1c(Cl)cccc1Cl.[Na+] [DICLOFENAC SODIUM] | 50.93% | 76.6% | Toxic |
| – | NS(=O)(=O)c1ccc(N2N=C(c3nnc(O)o3)CC2c2ccc(Cl)cc2)cc1 (racemic) | 35.38% | – | – |
| – | NS(=O)(=O)c1ccc(N2N=C(c3nnc(S)o3)CC2c2ccc(Cl)cc2)cc1 (racemic) | 36.76% | – | – |
| – | CSc1nnc(C2=NN(c3ccccc3)C(c3ccc(Cl)cc3)C2)s1 (racemic) | 11.84% | – | – |
| – | Oc1nc(C2=NN(c3ccccc3)C(c3ccc(Cl)cc3)C2)no1 (racemic) | 32.68% | – | – |
| – | O=C(O)Cc1nnc(C2=NN(c3ccccc3)C(c3ccc(Cl)cc3)C2)o1 (racemic) | 7.46% | – | – |
| – | N#CC1=NN(c2ccccc2)C(c2ccc(Cl)cc2)C1 (racemic) | 39.43% | – | – |
| – | CCOC(=O)Cc1nnc(C2=NN(c3ccccc3)C(c3ccc(Cl)cc3)C2)o1 (racemic) | -17.6% | – | – |
| 6% | FC(F)(F)c1nc(C2=NN(c3ccccc3)C(c3ccc(Cl)cc3)C2)no1 (racemic) | 49.45% | 15.8% | Non-toxic |
